Here are results for 68 compounds from the Kinase Knowledgebase extract (Sharma et al. 2016).

Bounds are passed on as bounds.

The assay deals with MAPK14 (human) (UniProt Q16539). The assay can be described thus: Assessment of MAPK14 Kinase Activity.
Sequence of MAPK14 (human) (Q16539 whole entry, looked up): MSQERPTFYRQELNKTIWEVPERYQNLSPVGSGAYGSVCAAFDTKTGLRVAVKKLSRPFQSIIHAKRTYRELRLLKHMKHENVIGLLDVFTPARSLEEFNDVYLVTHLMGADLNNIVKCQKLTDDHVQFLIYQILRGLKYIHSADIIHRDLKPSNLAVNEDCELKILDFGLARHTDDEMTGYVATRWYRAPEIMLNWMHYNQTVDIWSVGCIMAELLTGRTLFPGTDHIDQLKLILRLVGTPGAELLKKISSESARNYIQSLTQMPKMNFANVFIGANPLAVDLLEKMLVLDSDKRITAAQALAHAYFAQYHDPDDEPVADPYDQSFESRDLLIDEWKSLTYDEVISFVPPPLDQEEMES

In turn, `CC(=O)c1ccc(-c2cc(NC(=O)Nc3sc(C(C)(C)C)cc3C(=O)N3CCNC(=O)C3(C)C)ccc2C)cn1` came in with a half-maximal inhibitory concentration (IC50) of less than 100 nM. For `Cc1ccc(NC(=O)Nc2cc(C(C)(C)C)sc2C(=O)N2CCN(C)C(=O)C2)cc1-c1ccc(CN2CCOCC2)nc1`, the concentration for half-maximal inhibition (IC50) was less than 100 nM. The compound `Cc1ccc(NC(=O)Nc2sc(C(C)(C)C)cc2C(=O)N2CCN(C)C(=O)C2(C)C)cc1-c1ccc(-n2ccnc2)nc1` showed an IC50 of less than 100 nM. With `COc1ccc(-c2cc(NC(=O)Nc3sc(C(C)(C)C)cc3C(=O)N3CCN(C)C(=O)C3(C)C)cc(F)c2C)cn1` the figure was less than 100 nM; with `Cc1ccc(NC(=O)Nc2sc(C(C)(C)C)cc2C(=O)N2CCNC(=O)C2(C)C)cc1-c1ccc(N2CCOCC2)cn1`, less than 100 nM; with `CCNC(=O)c1ccc(-c2cc(NC(=O)Nc3cc(C(C)(C)C)oc3C(=O)N3CCN(C)C(=O)C3(C)C)ccc2C)cn1`, less than 100 nM.

`Cc1ccc(NC(=O)Nc2sc(C(C)(C)C)cc2C(=O)N2CCNC(=O)C2(C)C)cc1-c1ccc(OCCN2CCNCC2)nc1` registered a 50% inhibitory concentration (IC50) of less than 100 nM. `Cc1nc(-c2cccc(NC(=O)Nc3sc(C(C)(C)C)cc3C(=O)N3CCNC(=O)C3(C)C)c2)cs1` came in with an IC50 of less than 100 nM. The result for `Cc1ccc(NC(=O)Nc2sc(C(C)(C)C)cc2C(=O)N2CCNC(=O)C2(C)C)cc1-c1ncccn1` reads less than 100 nM; that for `Cc1ccc(NC(=O)Nc2cc(C(C)(C)C)oc2C(=O)N2CCNC(=O)C2(C)C)cc1-c1ccc(OCCN(C)C)nc1`, less than 100 nM. `CCNC(=O)c1ccc(-c2cc(NC(=O)Nc3sc(C(C)(C)C)nc3C(=O)N3CCN(C)C(=O)C3(C)C)ccc2C)cn1` registered an IC50 of less than 100 nM.

For `Cc1ccc(NC(=O)Nc2cc(C(C)(C)C)sc2C(=O)N2CCN(C)C(=O)C2(C)C)cc1-c1ccc(N2CCOCC2)nc1`, the half-maximal inhibitory concentration (IC50) is less than 100 nM. The result for `Cc1ccc(NC(=O)Nc2sc(C(C)(C)C)cc2C(=O)N2CCN(C)C(=O)C2(C)C)cc1-c1ccc(N2CCOCC2)nc1` reads less than 100 nM; that for `Cc1ccc(NC(=O)Nc2sc(C(C)(C)C)cc2C(=O)N2CCNC(=O)C2(C)C)cc1C#CCN1CCN(C)CC1`, less than 100 nM. The result for `COc1ccc(-c2cc(NC(=O)Nc3cc(C(C)(C)C)sc3C(=O)N3CCN(CCO)C(=O)C3(C)C)ccc2C)cn1` reads less than 100 nM.

Take `CCOc1ccc(-c2cc(NC(=O)Nc3cn(C(C)(C)C)nc3C(=O)N3CCN(C)C(=O)C3(C)C)ccc2C)cn1`: the concentration for half-maximal inhibition (IC50) is less than 100 nM. The result for `Cc1ccc(NC(=O)Nc2sc(C(C)(C)C)cc2C(=O)N2CCNC(=O)C2(C)C)cc1-c1ccncc1` reads less than 100 nM; that for `CCC(C)(C)c1cc(C(=O)N2CCN(C)C(=O)C2(C)C)c(NC(=O)Nc2ccc(C)c(-c3ccc(CN4CCOCC4)nc3)c2)s1`, less than 100 nM. With `CCNC(=O)c1ccc(-c2cc(NC(=O)Nc3cc(C(C)(C)C)sc3C(=O)N3CCNC(=O)C3(C)C)ccc2C)cn1` the figure was less than 100 nM; with `Cc1ccc(NC(=O)Nc2sc(C(C)(C)C)cc2C(=O)N2CCNC(=O)C2(C)C)cc1-c1ccc(OC2CCOCC2)nc1`, less than 100 nM. The result for `Cc1ccc(NC(=O)Nc2cn(C(C)(C)C)nc2C(=O)N2CCNC(=O)C2(C)C)cc1-c1ccc(C(C)C)nc1` reads less than 100 nM; that for `Cc1ccc(NC(=O)Nc2cn(C(C)(C)C)nc2C(=O)N2CCN(C)C(=O)C2(C)C)cc1-c1ccc(CN2CCOCC2)nc1`, less than 100 nM. In turn, `CN(C)CCOc1ccc(-c2cccc(NC(=O)Nc3sc(C(C)(C)C)cc3C(=O)N3CCNC(=O)C3(C)C)c2)cn1` gave a half-maximal inhibitory concentration (IC50) of less than 100 nM. The result for `Cc1ccc(NC(=O)Nc2sc(C(C)(C)C)cc2C(=O)N2CCC(=O)N(C)CC2)cc1-c1ccc(N2CCOCC2)cn1` reads less than 100 nM. The result for `Cc1ccc(NC(=O)Nc2sc(C(C)(C)C)cc2C(=O)N2CCN(C)C(=O)C2(C)C)cc1-c1ccc(C(=O)N2CCOCC2)nc1` reads less than 100 nM. As for `Cc1nnc(-c2ccc(-c3cc(NC(=O)Nc4sc(C(C)(C)C)nc4C(=O)N4CCN(C)C(=O)C4(C)C)ccc3C)cn2)o1`, the IC50 is less than 100 nM.

Compound `Cc1ccc(NC(=O)Nc2sc(C(C)(C)C)cc2C(=O)N2CCNC(=O)C2(C)C)cc1-c1ccc(CN2CCOCC2)nc1` yielded an IC50 of less than 100 nM. The result for `CCc1ccc(-c2cc(NC(=O)Nc3cc(C(C)(C)C)sc3C(=O)N3CCN(C)C(=O)C3(C)C)cc(F)c2C)cn1` reads less than 100 nM; that for `CCN1CCN(C(=O)c2sc(C(C)(C)C)cc2NC(=O)Nc2ccc(C)c(-c3ccc(CN4CCOCC4)nc3)c2)C(C)(C)C1=O`, less than 100 nM; that for `COc1ccc(NC(=O)Nc2sc(C(C)(C)C)cc2C(=O)N2CCNC(=O)C2(C)C)cc1-c1ccncc1`, less than 100 nM. In the case of `CCc1ccc(-c2cc(NC(=O)Nc3sc(C(C)(C)C)cc3C(=O)N3CCNC(=O)C3(C)C)ccc2C)nc1`, the IC50 is less than 100 nM. Compound `Cc1ccc(NC(=O)Nc2cc(C(C)(C)C)sc2C(=O)N2CCNC(=O)C2(C)C)cc1-c1ccc(CN2CCOCC2)nc1` registered an IC50 of less than 100 nM. Compound `Cc1ccc(NC(=O)Nc2sc(C(C)(C)C)cc2C(=O)N2CCNC(=O)C2(C)C)cc1C#CCOCCN1CCOCC1` returned a half-inhibitory concentration (IC50) of less than 100 nM.

On to `Cc1ccc(NC(=O)Nc2sc(C(C)(C)C)cc2C(=O)N2CCNC(=O)C2(C)C)cc1-c1c(C)noc1C`, for which the half-maximal inhibitory concentration (IC50) is less than 100 nM. In turn, `Cc1ccc(NC(=O)Nc2sc(C(C)(C)C)cc2C(=O)N2CCNC(=O)C2(C)C)cc1-c1ccccn1` showed an IC50 of less than 100 nM. `CNC(=O)c1ccc(-c2cc(NC(=O)Nc3sc(C(C)(C)C)cc3C(=O)N3CCNC(=O)C3(C)C)ccc2C)cn1` registered an IC50 of less than 100 nM. In turn, `COc1ccc(-c2cc(NC(=O)Nc3sc(C(C)(C)C)cc3C(=O)N3CCN(C)C(=O)C3(C)C)c(F)cc2C)cn1` showed an IC50 of less than 100 nM. With `COc1ccc(-c2cc(NC(=O)Nc3sc(C(C)(C)C)cc3C(=O)N3CCNC(=O)C3(C)C)c(F)cc2C)cn1` the figure was less than 100 nM; with `CCc1ccc(-c2cc(NC(=O)Nc3cn(C4(C)CCCC4)nc3C(=O)N3CCNC(=O)C3(C)C)ccc2C)cn1`, less than 100 nM.

Take `Cc1ccc(-c2ccc(N3CCOCC3)nc2)cc1NC(=O)Nc1sc(C(C)(C)C)cc1C(=O)N1CCNC(=O)C1(C)C`: the IC50 is less than 100 nM.

In turn, `Cc1cc(NC(=O)Nc2cc(C(C)(C)C)sc2C(=O)N2CCNC(=O)C2(C)C)cc(-c2ccc(N3CCOCC3)cn2)c1` registered a half-maximal inhibitory concentration (IC50) of less than 100 nM. With `Cc1nnc(-c2ccc(-c3cc(NC(=O)Nc4cc(C(C)(C)C)sc4C(=O)N4CCN(C)C(=O)C4(C)C)ccc3C)cn2)o1` the figure was less than 100 nM; with `Cc1ncc(NC(=O)Nc2sc(C(C)(C)C)cc2C(=O)N2CCNC(=O)C2(C)C)cc1-c1ccc(N2CCOCC2)nc1`, less than 100 nM. The result for `Cc1ccc(NC(=O)Nc2cn(C(C)(C)C)nc2C(=O)N2CCNC(=O)C2(C)C)cc1-c1cccnc1` reads less than 100 nM; that for `Cc1ccc(NC(=O)Nc2cn(C(C)(C)C)nc2C(=O)N2CCN(C)C(=O)C2(C)C)cc1-c1ccc(CN2CCOCC2)cn1`, less than 100 nM. With `Cc1ccc(NC(=O)Nc2sc(C(C)(C)C)cc2C(=O)N2CCNC(=O)C2(C)C)cc1N1C(=O)CN(C)C1=O` the figure was less than 100 nM; with `CCc1ccc(-c2cc(NC(=O)Nc3sc(C(C)(C)C)cc3C(=O)N3CCN(C)C(=O)C3(C)C)ccc2C)cn1`, less than 100 nM. `COc1ccc(NC(=O)Nc2sc(C(C)(C)C)cc2C(=O)N2CCNC(=O)C2(C)C)c(C)c1-c1ccncc1` displayed an IC50 of less than 100 nM.

`CC(C)(C)c1cc(C(=O)N2CCNC(=O)C2(C)C)c(NC(=O)Nc2ccc(F)c(-c3ccc(OCCN4CCOCC4)nc3)c2)s1`: the 50% inhibitory concentration (IC50) is less than 100 nM. `COCCOCC#Cc1cc(NC(=O)Nc2sc(C(C)(C)C)cc2C(=O)N2CCNC(=O)C2(C)C)ccc1C`: the half-inhibitory concentration (IC50) is less than 100 nM. As to `CON(C)C(=O)c1ccc(-c2cc(NC(=O)Nc3sc(C(C)(C)C)cc3C(=O)N3CCN(C)C(=O)C3(C)C)ccc2C)cn1`, the 50% inhibitory concentration (IC50) is less than 100 nM. Take `Cc1ccc(NC(=O)Nc2sc(C(C)(C)C)cc2C(=O)N2CCNC(=O)C2(C)C)cc1-c1ccc(OCCCc2ccccn2)nc1`: the IC50 was less than 100 nM. The result for `COc1ccc(-c2cc(NC(=O)Nc3sc(C(C)(C)C)cc3C(=O)N3CCNC(=O)C3(C)C)cc(F)c2C)cn1` reads less than 100 nM; that for `Cc1ccc(NC(=O)Nc2sc(C(C)(C)C)cc2C(=O)N2CCN(C)C(=O)C2(C)C)cc1-c1ccc(-n2cccn2)nc1`, less than 100 nM; that for `Cc1ccc(NC(=O)Nc2sc(C(C)(C)C)cc2C(=O)N2CCN(C)C(=O)C2(C)C)cc1-c1ccc(CN2CCN(C)CC2)nc1`, less than 100 nM. Turning to `Cc1ccc(NC(=O)Nc2sc(C(C)(C)C)cc2C(=O)N2CCNC(=O)C2(C)C)cc1-c1ccc(N2CCC(N(C)C)C2)nc1` (stereo not drawn), the half-maximal inhibitory concentration (IC50) was less than 100 nM. `COCCNC(=O)c1ccc(-c2cc(NC(=O)Nc3sc(C(C)(C)C)cc3C(=O)N3CCN(C)C(=O)C3(C)C)ccc2C)cn1` had a half-maximal inhibitory concentration (IC50) of less than 100 nM. The compound `Cc1ccc(NC(=O)Nc2sc(C(C)(C)C)cc2C(=O)N2CCN(C)C(=O)C2(C)C)cc1-c1ccc(CN2CCOCC2)nc1` registered an IC50 of less than 100 nM.

Regarding `Cc1ccc(NC(=O)Nc2sc(C(C)(C)C)cc2C(=O)N2CCNC(=O)C2(C)C)cc1-c1ccc(N2CCOCC2)nc1`, the IC50 is less than 100 nM.

The compound `Cc1ccc(NC(=O)Nc2sc(C(C)(C)C)cc2C(=O)N2CCNC(=O)CC2)cc1-c1cccnc1` returned an IC50 of less than 100 nM.

As for `COc1ccc(-c2cc(NC(=O)Nc3cc(C(C)(C)C)sc3C(=O)N3CCN(C)C(=O)C3(C)C)ccc2C)cn1`, the IC50 was less than 100 nM. The compound `Cc1ccc(NC(=O)Nc2sc(C(C)(C)C)cc2C(=O)N2CCN(C)C(=O)C2(C)C)cc1-c1ccc(C[N+]2([O-])CCOCC2)[n+]([O-])c1` showed a half-maximal inhibitory concentration (IC50) of 100 to 1000 nM.

On to `Cc1ccc(NC(=O)Nc2sc(C(C)(C)C)cc2C(=O)N2CCN(C(=O)CN(C)C)CC2)cc1-c1cccnc1`, for which the half-maximal inhibitory concentration (IC50) lay within 100 to 1000 nM. In the case of `Cc1ccc(-c2cc(NC(=O)Nc3sc(C(C)(C)C)cc3C(=O)N3CCN(C)C(=O)C3(C)C)ccc2C)cn1`, the IC50 is less than 100 nM. With `Cc1ncc(NC(=O)Nc2sc(C(C)(C)C)cc2C(=O)N2CCN(C)C(=O)C2(C)C)cc1C#CC1CC1` the figure was less than 100 nM; with `CC(C)(C)c1cc(C(=O)N2CCNC(=O)C2(C)C)c(NC(=O)Nc2cccc(-c3ccnc(F)c3)c2)s1`, less than 100 nM.

On to `Cc1ccc(NC(=O)Nc2cn(C(C)(C)C)nc2C(=O)N2CCN(C3CCN(C)C3)C(=O)C2(C)C)cc1-c1cccnc1` (stereo not drawn), for which the IC50 lay within 100 to 1000 nM. With `Cc1ccc(NC(=O)Nc2sc(C(C)(C)C)cc2C(=O)N2CCNC(=O)C2(C)C)cc1-c1ccc(F)nc1` the figure was less than 100 nM.

For orientation: IC50 means the point on the concentration scale where inhibition reaches its midpoint. A lower IC50 goes with higher potency.
